Data from PMC10576086, “Characterization of the horse chestnut genome reveals the evolution of aescin and aesculin biosynthesis” (Nature Communications, 2023).

Tests used:
AcUGT84A56 = system: T1, AcUGT84A56; test: HPLC glucosyltransferase kinetics; type: biochemical, Aesculus chinensis; conditions: 1 mM UDP-glucose, Tris-HCl pH 7.0, 37 °C, 0-400 μM acceptor
T1 construct: gene UGT84A56; full-length, MBP or His fusion (pMAL-c2x or pET28a), E. coli, purified

AcUGT92G7 = system: T2, AcUGT92G7; test: HPLC glucosyltransferase kinetics; type: biochemical, Aesculus chinensis; conditions: 1 mM UDP-glucose, Tris-HCl pH 7.0, 37 °C, 0-400 μM acceptor
T2 construct: gene UGT92G7; full-length, MBP or His fusion (pMAL-c2x or pET28a), E. coli, purified

O=c1ccc2cc(O)c(O)cc2o1 [compound 4, esculetin]
Km (AcUGT84A56): 177 µM | Km (AcUGT92G7): 49 µM
